Source: ChEMBL document CHEMBL5331061, “Design, synthesis, and biological evaluation of Wee1 kinase degraders” (Eur J Med Chem, 2022)
The source made the active and inactive calls. No cut-off for these calls is given here.

Tests used:
MV4-11 [1] = experiment: Effect on PLK1 expression in human MV4-11 cells at IC50 measured after 6 hrs by Western blot analysis; assay type: functional, cell-based
MV4-11 [2] = experiment: Antiproliferative activity against human MV4-11 cells assessed as cell growth inhibition measured after 72 hrs by SRB Assay; conditions: MV4-11, 72 h
SUM149PT = experiment: Antiproliferative activity against human SUM149PT cells assessed as cell growth inhibition measured after 72 hrs by SRB Assay
A498 = experiment: Antiproliferative activity against human A498 cells assessed as cell growth inhibition measured after 72 hrs by SRB Assay; conditions: A498, 72 h
[3] = molecular target: T1, Protein cereblon/Wee1-like protein kinase (Homo sapiens, UniProt P30291+Q96SW2); experiment: PROTAC activity at CRBN/Wee1 in human MV4-11 cells assessed as residual Wee1 level at IC50 measured after 6 hrs by Western blot analysis (reference value: 100%); assay type: cell-based
[4] = molecular target: Serine/threonine-protein kinase PLK1 (Homo sapiens, UniProt P53350); experiment: Inhibition of PLK1 (unknown origin)
[5] = Effect on Wee1 level in human MV4-11 cells assessed as Wee1 level at 50 nM measured after 6 hrs by Immunoblotting method relative to control (reference value: 100%); assay type: functional
[6] = Tmax in ICR mouse at 20 mg/kg, po measured upto 360 mins; assay type: ADME, organism-based; conditions: in vivo
[7] = Effect on Wee1 level in human MV4-11 cells assessed as Wee1 level at 100 nM measured after 6 hrs by Immunoblotting method relative to control (reference value: 100%); assay type: functional
[8] = AUClast in ICR mouse at 20 mg/kg, po measured upto 360 mins; assay type: ADME, organism-based; parameters: time < 360 min, dose 20 mg/kg, route po; conditions: in vivo
[9] = Cmax in ICR mouse at 20 mg/kg, po measured upto 360 mins; assay type: ADME, organism-based; parameters: time < 360 min, dose 20 mg/kg, route po; conditions: in vivo
[10] = Observed AUCinfinity ICR mouse at 20 mg/kg, po measured upto 360 mins; assay type: ADME, organism-based; parameters: time < 360 min, dose 20 mg/kg, route po; conditions: in vivo
[11] = Effect on Wee1 level in human MV4-11 cells assessed as residual Wee1 level at 6.25 nM measured after 6 hrs by Immunoblotting method (reference value: 100%); assay type: functional
[12] = Effect on Wee1 level in human MV4-11 cells assessed as Wee1 level at 25 nM measured after 6 hrs by Immunoblotting method relative to control (reference value: 100%); assay type: functional
[13] = molecular target: Wee1-like protein kinase (Homo sapiens) (UniProt P30291); experiment: Inhibition of Wee1 in human MV4-11 cells at IC50 measured after 6 hrs by Western blot analysis relative to control; assay type: cell-based
[14] = Observed MRTinfinity ICR mouse at 20 mg/kg, po measured upto 360 mins; assay type: ADME, organism-based; conditions: in vivo
[15] = molecular target: T1, Protein cereblon/Wee1-like protein kinase; experiment: PROTAC activity at CRBN/Wee1 in human MV4-11 cells assessed as reduction in Wee1 level measured after 72 hrs by Western blot analysis; assay type: cell-based
[16] = Effect on Wee1 level in human MV4-11 cells assessed as residual Wee1 level at 12.5 nM measured after 6 hrs by Immunoblotting method (reference value: 100%); assay type: functional
[17] = Half life in ICR mouse at 20 mg/kg, po measured upto 360 mins; assay type: ADME, organism-based; conditions: in vivo

T1 sequence (P30291 whole entry, looked up): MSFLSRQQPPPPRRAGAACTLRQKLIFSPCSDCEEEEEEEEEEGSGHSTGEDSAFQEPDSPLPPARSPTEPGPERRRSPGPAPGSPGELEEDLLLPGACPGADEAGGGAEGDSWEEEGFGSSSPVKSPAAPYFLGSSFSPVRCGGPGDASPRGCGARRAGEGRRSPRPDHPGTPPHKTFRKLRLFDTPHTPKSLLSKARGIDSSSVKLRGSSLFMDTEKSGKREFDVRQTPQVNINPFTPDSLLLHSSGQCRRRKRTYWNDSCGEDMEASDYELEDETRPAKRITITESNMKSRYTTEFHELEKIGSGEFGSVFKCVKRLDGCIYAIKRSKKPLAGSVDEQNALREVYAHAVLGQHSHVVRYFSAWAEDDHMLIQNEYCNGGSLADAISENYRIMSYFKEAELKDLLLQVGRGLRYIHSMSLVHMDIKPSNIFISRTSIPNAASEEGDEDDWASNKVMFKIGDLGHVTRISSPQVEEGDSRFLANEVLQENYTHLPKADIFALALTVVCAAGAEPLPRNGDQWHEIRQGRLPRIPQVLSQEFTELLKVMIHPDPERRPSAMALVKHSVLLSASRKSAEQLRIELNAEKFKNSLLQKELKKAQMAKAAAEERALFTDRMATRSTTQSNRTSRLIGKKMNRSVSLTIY
T1 sequence (Q96SW2 whole entry, looked up): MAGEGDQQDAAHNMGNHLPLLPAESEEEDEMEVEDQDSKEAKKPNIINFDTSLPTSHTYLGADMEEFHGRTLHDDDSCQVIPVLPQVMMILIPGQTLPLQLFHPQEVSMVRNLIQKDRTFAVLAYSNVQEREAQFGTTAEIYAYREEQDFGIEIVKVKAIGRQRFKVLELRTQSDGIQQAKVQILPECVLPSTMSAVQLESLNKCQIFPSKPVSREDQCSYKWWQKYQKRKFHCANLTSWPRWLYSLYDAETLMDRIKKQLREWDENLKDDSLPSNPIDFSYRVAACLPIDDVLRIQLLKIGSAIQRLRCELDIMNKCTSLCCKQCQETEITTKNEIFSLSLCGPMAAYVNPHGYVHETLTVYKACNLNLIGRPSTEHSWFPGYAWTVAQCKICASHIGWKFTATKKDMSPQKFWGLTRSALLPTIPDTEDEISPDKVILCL
Serine/threonine-protein kinase PLK1, sequence (P53350 whole entry): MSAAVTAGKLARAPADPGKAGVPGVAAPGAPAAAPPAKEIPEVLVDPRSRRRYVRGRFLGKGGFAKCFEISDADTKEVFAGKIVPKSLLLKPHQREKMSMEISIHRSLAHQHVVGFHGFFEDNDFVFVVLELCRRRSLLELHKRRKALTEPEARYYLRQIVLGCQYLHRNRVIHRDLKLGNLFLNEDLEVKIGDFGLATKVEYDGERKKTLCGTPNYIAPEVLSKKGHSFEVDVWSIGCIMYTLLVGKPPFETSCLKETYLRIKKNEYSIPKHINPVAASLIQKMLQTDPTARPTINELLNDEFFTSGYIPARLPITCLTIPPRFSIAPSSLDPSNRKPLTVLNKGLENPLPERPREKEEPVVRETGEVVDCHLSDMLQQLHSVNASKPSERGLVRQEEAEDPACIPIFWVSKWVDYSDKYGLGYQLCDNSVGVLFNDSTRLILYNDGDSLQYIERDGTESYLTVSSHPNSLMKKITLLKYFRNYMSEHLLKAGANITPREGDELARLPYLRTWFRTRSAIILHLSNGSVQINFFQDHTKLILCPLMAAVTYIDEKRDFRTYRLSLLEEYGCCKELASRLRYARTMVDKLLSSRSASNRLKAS
Wee1-like protein kinase (Homo sapiens), sequence (P30291 whole entry, looked up): as the sequence (P30291 whole entry, looked up) above

SMILES: C=CCn1c(=O)c2cnc(Nc3ccc(N4CCN(CC(=O)NCCCCC(=O)NCCNc5cccc6c5C(=O)N(C5CCC(=O)NC5=O)C6=O)CC4)cc3)nc2n1-c1cccc(C(C)(C)O)n1 (configuration not stated)
- Activity (MV4-11 [1]): inactive
- IC50 (MV4-11 [2]): 2 µM
- IC50 (SUM149PT): > 10 µM
- IC50 (A498): > 10 µM
- Activity [3]: 22%

SMILES: C=CCn1c(=O)c2cnc(Nc3ccc(N4CCN(CC(=O)NCCOCCOCCNc5cccc6c5C(=O)N(C5CCC(=O)NC5=O)C6=O)CC4)cc3)nc2n1-c1cccc(C(C)(C)O)n1 (configuration not stated)
- Activity (MV4-11 [1]): inactive
- IC50 (MV4-11 [2]): 1 µM
- IC50 (SUM149PT): 6.04 µM
- IC50 (A498): > 10 µM
- IC50 [4]: > 10 µM
- Activity [3]: 21%

SMILES: C=CCn1c(=O)c2cnc(Nc3ccc(N4CCN(CCCCCNc5cccc6c5C(=O)N(C5CCC(=O)NC5=O)C6=O)CC4)cc3)nc2n1-c1cccc(C(C)(C)O)n1 (configuration not stated)
- Activity (MV4-11 [1]): inactive
- IC50 (MV4-11 [2]): 0.182 µM
- IC50 (SUM149PT): 1.26 µM
- IC50 (A498): 1.31 µM
- Activity [3]: 24%

SMILES: C=CCn1c(=O)c2cnc(Nc3ccc(N4CCN(CC(=O)NCCCCC(=O)NCc5ccc(CNc6cccc7c6C(=O)N(C6CCC(=O)NC6=O)C7=O)cc5)CC4)cc3)nc2n1-c1cccc(C(C)(C)O)n1 (configuration not stated)
- Activity (MV4-11 [1]): inactive
- IC50 (MV4-11 [2]): 6 µM
- IC50 (SUM149PT): > 10 µM
- IC50 (A498): > 10 µM
- IC50 [4]: > 10 µM
- Activity [3]: 27%

SMILES: C=CCn1c(=O)c2cnc(Nc3ccc(N4CCN(CC(=O)NCCCCC(=O)NCCOc5cccc6c5C(=O)N(C5CCC(=O)NC5=O)C6=O)CC4)cc3)nc2n1-c1cccc(C(C)(C)O)n1 (configuration not stated)
- Activity (MV4-11 [1]): inactive
- IC50 (MV4-11 [2]): 5 µM
- IC50 (SUM149PT): > 10 µM
- IC50 (A498): > 10 µM
- Activity [3]: 23%

SMILES: C=CCn1c(=O)c2cnc(Nc3ccc(N4CCN(CC(=O)NCCCCC(=O)NCc5ccc(COc6cccc7c6C(=O)N(C6CCC(=O)NC6=O)C7=O)cc5)CC4)cc3)nc2n1-c1cccc(C(C)(C)O)n1 (configuration not stated)
- Activity (MV4-11 [1]): inactive
- IC50 (MV4-11 [2]): 7 µM
- IC50 (SUM149PT): > 10 µM
- IC50 (A498): > 10 µM
- Activity [3]: 45%

SMILES: C=CCn1c(=O)c2cnc(Nc3ccc(N4CCN(CC(=O)NCCOCCOCCOCCOCCNc5cccc6c5C(=O)N(C5CCC(=O)NC5=O)C6=O)CC4)cc3)nc2n1-c1cccc(C(C)(C)O)n1 (configuration not stated)
- Activity (MV4-11 [1]): inactive
- IC50 (MV4-11 [2]): 0.408 µM
- IC50 (SUM149PT): 3.14 µM
- IC50 (A498): 5.83 µM
- Activity [3]: 49%

SMILES: C=CCn1c(=O)c2cnc(Nc3ccc(N4CCN(CC(=O)NCCOCCOCCOCCNc5cccc6c5C(=O)N(C5CCC(=O)NC5=O)C6=O)CC4)cc3)nc2n1-c1cccc(C(C)(C)O)n1 (configuration not stated)
- Activity (MV4-11 [1]): inactive
- IC50 (MV4-11 [2]): 2.2 µM
- IC50 (SUM149PT): > 10 µM
- IC50 (A498): > 10 µM
- Activity [3]: 37%

SMILES: C=CCn1c(=O)c2cnc(Nc3ccc(N4CCN(CC(=O)NCCOCCOCCOCCOCCOCCOCCNc5cccc6c5C(=O)N(C5CCC(=O)NC5=O)C6=O)CC4)cc3)nc2n1-c1cccc(C(C)(C)O)n1 (configuration not stated)
- Activity (MV4-11 [1]): inactive
- IC50 (MV4-11 [2]): 1.13 µM
- IC50 (SUM149PT): > 10 µM
- IC50 (A498): > 10 µM
- Activity [3]: 33%

SMILES: C=CCn1c(=O)c2cnc(Nc3ccc(N4CCN(C)CC4)cc3)nc2n1-c1cccc(C(C)(C)O)n1 [ADAVOSERTIB]
- Activity [5]: 70%
- Activity (MV4-11 [1]): inactive
- Tmax [6]: 0.25 h
- IC50 (MV4-11 [2]): 0.133 µM
- Activity [7]: 120%
- IC50 (SUM149PT): 0.536 µM
- AUC(0-t) at 6 h [8]: 0.915 µg·h/mL
- Cmax [9]: 0.681 µg/mL
- AUC(0-inf) [10]: 0.934 µg·h/mL
- IC50 (A498): 0.215 µM
- Activity [11]: 90%
- Activity [12]: 90%
- IC50 [4]: 0.268 µM
- inhibition [13]: 94%
- MRT inf [14]: 2.84 h
- Activity [15]: inactive
- Activity [16]: 98%
- half-life [17]: 7.15 h

SMILES: C=CCn1c(=O)c2cnc(Nc3ccc(N4CCN(CC(=O)NCCCCCNc5cccc6c5C(=O)N(C5CCC(=O)NC5=O)C6=O)CC4)cc3)nc2n1-c1cccc(C(C)(C)O)n1 (configuration not stated)
- Activity (MV4-11 [1]): inactive
- IC50 (MV4-11 [2]): 0.809 µM
- IC50 (SUM149PT): 2.13 µM
- IC50 (A498): 6.87 µM
- Activity [3]: 32%

SMILES: C=CCn1c(=O)c2cnc(Nc3ccc(N4CCN(CC(=O)NCCOCCOCCOCCOCCOCCOCCOCCNc5cccc6c5C(=O)N(C5CCC(=O)NC5=O)C6=O)CC4)cc3)nc2n1-c1cccc(C(C)(C)O)n1 (configuration not stated)
- Activity (MV4-11 [1]): inactive
- IC50 (MV4-11 [2]): 0.716 µM
- IC50 (SUM149PT): > 10 µM
- IC50 (A498): > 10 µM
- IC50 [4]: > 10 µM
- Activity [3]: 21%

SMILES: C=CCn1c(=O)c2cnc(Nc3ccc(N4CCN(CC(=O)NCCOCCOCCOCCOCCOCCNc5cccc6c5C(=O)N(C5CCC(=O)NC5=O)C6=O)CC4)cc3)nc2n1-c1cccc(C(C)(C)O)n1 (configuration not stated)
- Activity (MV4-11 [1]): inactive
- IC50 (MV4-11 [2]): 2.15 µM
- IC50 (SUM149PT): > 10 µM
- IC50 (A498): 10 µM
- IC50 [4]: > 10 µM
- Activity [3]: 26%

SMILES: C=CCn1c(=O)c2cnc(Nc3ccc(N4CCN(CC(=O)NCCCNc5cccc6c5C(=O)N(C5CCC(=O)NC5=O)C6=O)CC4)cc3)nc2n1-c1cccc(C(C)(C)O)n1 (configuration not stated)
- Activity (MV4-11 [1]): inactive
- IC50 (MV4-11 [2]): 0.215 µM
- IC50 (SUM149PT): 1.55 µM
- IC50 (A498): 7.74 µM
- Activity [3]: 37%

SMILES: C=CCn1c(=O)c2cnc(Nc3ccc(N4CCN(CC(=O)NCCOCCOCCOCCOCCOCCOCCOCCOCCNc5cccc6c5C(=O)N(C5CCC(=O)NC5=O)C6=O)CC4)cc3)nc2n1-c1cccc(C(C)(C)O)n1 (configuration not stated)
- Activity (MV4-11 [1]): inactive
- IC50 (MV4-11 [2]): 0.523 µM
- IC50 (SUM149PT): 8.85 µM
- IC50 (A498): > 10 µM
- Activity [3]: 28%

SMILES: C=CCn1c(=O)c2cnc(Nc3ccc(N4CCN(CC(=O)NCCCCNc5cccc6c5C(=O)N(C5CCC(=O)NC5=O)C6=O)CC4)cc3)nc2n1-c1cccc(C(C)(C)O)n1 (configuration not stated)
- Activity (MV4-11 [1]): inactive
- IC50 (MV4-11 [2]): 0.226 µM
- IC50 (SUM149PT): 1.59 µM
- IC50 (A498): 5.38 µM
- Activity [3]: 21%

SMILES: C=CCn1c(=O)c2cnc(Nc3ccc(N4CCN(CC(=O)NCCCCCCNc5cccc6c5C(=O)N(C5CCC(=O)NC5=O)C6=O)CC4)cc3)nc2n1-c1cccc(C(C)(C)O)n1 (configuration not stated)
- Activity (MV4-11 [1]): inactive
- IC50 (MV4-11 [2]): 1.11 µM
- IC50 (SUM149PT): 2.81 µM
- IC50 (A498): 6.65 µM
- Activity [3]: 49%
